# According to patent US20160281089A1, “PREVENTION OF VIRAL INFECTIVITY” (priority 2005, published 2016):
# Legend:
# HIV virions = assay: ODN-mediated cleavage of viral RNA in intact HIV virions (real-time PCR, RT-PCR, agarose gel); format: biochemical; conditions: 0.5 μM ODN, 6 hours; for amount of undigested viral RNA (real-time PCR, primers covering PPT region): intact HIV virions, RPMI medium
# SFFV [1] = assay: Prophylactic SFFV mouse model: virions pre-incubated with ODNs, injected i.p., then i.v. treatments; format: in vivo, mice
# Description: Next we evaluated the prophylactic effect of ODN M on SFFV replication. For this we established 5 groups of 5 mice each. We pre-incubated SFFV with different ODNs or PBS for 2 hours and then injected the two together intraperitoneally at time 0. Then the mice were treated at 2, 4, and 24 hours post-infection by i.v. route. After 5 days, plasma from the mice was analyzed for viral RNA levels. […] A blood smear of the mice at day 64 post-infection was analyzed by Giemsa staining.
# a. SFFV virions pre-treated with ODNs for 2 hours were injected i.p. into mice. Subsequent treatments were at 2, 4 and 24 h post infection. 5 groups of 5 mice each were used: negative control (1), infection with PBS (2), ODN M (3), or ODN A treatment (4) and mock-infection with ODN M treatment (5). Bleeding was performed five days post-infection for analysis of the viral RNA. The relative RNA levels standardized to group 2 of fully infected mice (bars) as well as RT-PCR products of the individual mice (gel analysis) are shown.
# SFFV [2] = assay: NIH 3T3 cells infected with ODN-pretreated SFFV; format: cell-based; conditions: three days post-infection, real-time RT-PCR
# Description: As next step we investigated the antiviral effect of ODNs by testing pre-treated virions for residual infectivity as has been described before for HIV particles. SFFV particles were pretreated with ODN M or its variants and used to infect NIH 3T3 cells. After three days RNA was extracted from infected cells and from the supernatants and SFFV was quantified by real-time RT-PCR and analysis of amplification products (FIG. 9b).
# b. NIH 3T3 cells were infected with SFFV pretreated with various ODNs. After three days the cells and supernatants were harvested and analyzed for SFFV RNA levels by quantitative real time RT-PCR (top) and RT-PCR (bottom) using GAPDH for comparison.
# SFFV [3] = assay: Treatment of 5-day-SFFV-infected mice, plasma SFFV RNA by real-time RT-PCR; format: in vivo
# Description: SFFV replicates to high titers in mice, whereby the spleen is a virus-shedding reservoir. The virus stock is recovered from spleen homogenates after full-blown disease, at about day 20 post infection (pi). The clarified supernatant contains around 2×10^5 focus forming units (FFU) per mil. Infection was normally performed by intravenous (iv) injection of 4×10^3 SFFV. After 5 days the blood was recovered (100 microliters) for detection of the viral RNA. The equivalent of 0.05 microliters was enough for RNA detection by 40 cycles. One FFU corresponds to about 6×10^4 RNA copies or 3×10^4 virus particles.
# A number of experiments were carried out to evaluate the effect of ODNs on the SFFV mouse model. We treated 5-day-SFFV-infected mice (thick arrow) with ODN M (triangle) and measured the plasma RNA levels 4 hours after the in vivo therapy by real-time RT-PCR (FIG. 10a.1). In a second experiment we isolated the plasma of 5-day-SFFV-infected mice and treated it ex vivo with ODN M for 4 hours (FIG. 10a.2). In the third experiment we isolated uninfected plasma, incubated it ex vivo with ODN M for 2 hours followed by the addition of SFFV for 4 more hours (FIG. 10a.3). Finally we incubated ODN M and SFFV together in normal mouse plasma ex vivo for 4 hours (FIG. 10a.4).
# To elucidate further the antiviral effect of ODN M in vivo we set up different therapeutic regimens. We infected mice with SFFV and then treated them 5 days later twice at an interval of two hours with either ODN M (1 mg), asPPT, ODN A as control, or PBS. The RNA was extracted 4, 8 and 16 hours later for PCR analysis (FIG. 10b.1). The viral RNA decreased approximately 6-fold in the plasma and started to slowly increase again 16 hours post-therapy.
# In the next study, we used a single injection as treatment protocol and assessed the antiviral effect of both ODN M and asPPT in a short time-course. Plasma was taken from mice at 0.5, 1, 2, and 4 hours after the single treatment (FIG. 10b.2). A strong decrease of the number of SFFV RNA copies was detectable 4 hours after treatment. […] We conclude from FIG. 10b.2 that a single injection is sufficient to decrease the number of RNA copies by approximately 6-fold 4 hours after the beginning of the therapy.
# In order to test, whether the SFFV titer increases again after ODN M-treatment, and whether it remains sensitive for ODN M, we treated 5-day-SFFV-infected mice at 3 days intervals with a double dose within 2 hours intervals. Plasma was taken before and 4 hours after treatment and assessed for viral RNA levels (FIG. 10b.3). ODN M exerted a strong antiviral effect with a reduction of RNA copies of 6-fold at day 0 compared with the control. At day 3, the effect is even stronger with 8-fold decrease of the SFFV RNA level.
# To obtain a more continuous effect of ODN M and asPPT on SFFV replication we treated the SFFV-infected mice every 12 hours (FIG. 10b.4). […] The lack of response is in accordance with our previous in vitro studies on the sequence-specificity of the ODN A.
# PCR was performed as indicated. 1. Mice infected with 200 μl containing 4×10^3 FFU SFFV for 5 days were treated i.v. with ODN M (1 mg corresponding to about 20 μM ODN M in the blood of a mouse) or PBS 4 hours post-treatment, plasma (100 μl) was recovered and analyzed by real time RT-PCR for SFFV RNA. 2. Plasma from a 5-day-SFFV-infected mouse was recovered and 100 μl were treated with ODN M (20 μM) for 4 hours at 37° C. ex vivo and then analyzed. 3. Plasma from a mock-infected mouse was treated with ODN M (20 μM) for 2 hours and then treated with 4×10^3 FFU in 20 μl for 4 hours. 4. Plasma from mock-infected mice was incubated with a combination of SFFV (4×10^3 FFU in 20 μl) and ODN M (20 μM) for 4 hours and then analyzed. The RNA levels were determined by real-time RT-PCR in the four experimental scenarios and are shown to the right.
# b. Effect of ODN treatment following SFFV-infection in vivo. […]
# [4] = treated every 12 hours, up to 60 hours
# [5] = SFFV pre-incubated 2 hours, i.p., i.v. treatments at 2, 4, 24 hours, day 5
sequence,measurement,setting,value
"CCCTTCCAGTCCCCCCTTTTCTTTT (chemistry not given here) [asPPT, single-stranded antisense PPT of HIV, lacks the passenger strand and the linker]","amount of undigested viral RNA (real-time PCR, primers covering PPT region)",HIV virions,less efficient cleavage of the viral RNA
same,viral infectivity in the body after pretreatment of the virus,"SFFV [1]; pretreatment in a small test tube 1 to 4 hours, then infection of the mouse",completely abrogate viral infectivity
same,SFFV RNA in infected cells and supernatant,SFFV [2],clearly less efficient
same,decrease of SFFV RNA levels (plateau),SFFV [3]; [4],~5 fold
"TCTTTTTGGGGGGTTTGTTTGTTTTTTCTTTCATTCCCCCCTTTTTCT (chemistry not given here) [ODN M, 22-mer antisense and 22-mer second strand connected by T4, targeted to extended PPT of SFFV]",decrease of plasma RNA levels compared to PBS control mice,SFFV [1]; [5],5 fold
same,"blood smear, Giemsa staining",SFFV [1]; day 64 post-infection,normal blood cell population
same,SFFV RNA in infected cells and supernatant,SFFV [2],suppressed viral replication
same,reduction of RNA copies compared with the control,"SFFV [3]; double dose within 2 hours, day 0, 4 hours after treatment",6 fold
same,decrease of the SFFV RNA level,"SFFV [3]; double dose within 2 hours, day 3",8 fold
same,antiviral effect compared with asPPT,"SFFV [3]; single injection, 2 hours after beginning of therapy",stronger than that of asPPT
same,decrease of number of SFFV RNA copies,"SFFV [3]; single injection, 4 hours after beginning of therapy",approximately 6 fold
same,decrease of SFFV RNA levels (plateau),SFFV [3]; [4],about 10 fold
same,decrease of viral RNA in the plasma,"SFFV [3]; treated twice at an interval of two hours, 1 mg, RNA at 4, 8, 16 hours",approximately 6 fold
"TTTTCTTTTGGGGGGTTTGGTTGGGTTTTCCCTTCCAGTCCCCCCTTTTCTTTT (phosphorothioate linkages, further chemistry not given here) [ODN A, 25 mer antisense and 25 mer passenger strand connected by T4, phosphorothioated at each end and in linker, targeted to extended PPT of HIV-1]",cDNA production in virions (PCR with ODN A- and viral cDNA-specific primers),HIV virions; virions containing monodeoxynucleotides,led to cDNA production starting with ODN A
same,"amount of undigested viral RNA (real-time PCR, primers covering PPT region)",HIV virions,significant decrease in the amount of amplification product
same,total viral RNA by agarose gel electrophoresis,"HIV virions; intact virions, compared to control ODNs",significant reduction of the viral RNA
same,reduction in RNA expression level,SFFV [1]; [5],30%
same,SFFV RNA in infected cells and supernatant,SFFV [2],clearly less efficient
same,effect on viral replication,SFFV [3]; double dose at 3 days intervals,no effect on viral replication
same,effect on decrease of the RNA level,SFFV [3]; [4],no significant effect
